{"source": "patent US8334235B2", "about": "“Thiadiazolyloxyphenylamidines and use thereof as fungicides” (Bayer Cropscience AG, priority 2008, dated 2012)", "key": {"Sphaerotheca fuliginea": {"tested_on": "Sphaerotheca fuliginea", "test": "Sphaerotheca test (cucumber)/protective", "format": "in vivo", "conditions": "Podosphaera fuliginea, 168 h, 500 ppm active substance, protective, evaluation 7 days after inoculation, read-out: degree of effectiveness", "description": "• Solvent: 49 parts by weight of N,N-dimethylformamide • Emulsifier: 1 part by weight of alkylaryl polyglycol ether (polyoxyethylene (16) tristearylphenyl ether) To prepare a suitable active substance composition, 1 part by weight of active substance is mixed with the given amounts of solvents and emulsifier and the concentrate is diluted to the desired concentration using water. For the testing of protective effectiveness, young cucumber plants are sprayed with the active substance composition in the application rate given. One day after treatment, the plants are inoculated with a suspension of spores of Sphaerotheca fuliginea. The plants are then placed in a greenhouse at 70% relative humidity and a temperature of 23° C. Evaluation is carried out 7 days after the inoculation. In this connection, 0% means a degree of effectiveness corresponding to that of the control, while a degree of effectiveness of 100% means that no infestation is observed."}, "Puccinia triticina [1]": {"tested_on": "Puccinia triticina", "test": "Puccinia triticina test (wheat)/protective", "format": "in vivo", "conditions": "192 h, 500 ppm active substance, protective, evaluation 8 days after inoculation, read-out: degree of effectiveness", "description": "(§1) • Solvent: 50 parts by weight of N,N-dimethylacetamide • Emulsifier: 1 part by weight of alkylaryl polyglycol ether (polyoxyethylene (16) tristearylphenyl ether)\n(§2) To prepare a suitable active substance composition, 1 part by weight of active substance is mixed with the given amounts of solvent and emulsifier and the concentrate is diluted to the desired concentration using water.\nFor the testing of protective effectiveness, young plants are sprayed with the active substance composition in the application rate given. After the spray coating has been dried on, the plants are sprayed with a suspension of spores of Puccinia triticina. The plants remain in an incubation chamber at 20° C. and 100% relative humidity for 48 hours. The plants are placed in a greenhouse at a temperature of approximately 20° C. and a relative humidity of approximately 80%.\n(§3) Evaluation is carried out 8 days after the inoculation. In this connection, 0% means a degree of effectiveness corresponding to that of the control, while a degree of effectiveness of 100% means that no infestation is observed."}, "Puccinia triticina [2]": {"tested_on": "Puccinia triticina", "test": "Puccinia triticina test (wheat)/curative", "format": "in vivo", "conditions": "192 h, 500 ppm active substance, curative, evaluation 8 days after inoculation, read-out: degree of effectiveness", "description": "as §1, §2\nFor the testing of curative effectiveness, young plants are sprayed with a suspension of spores of Puccinia triticina. The plants remain in an incubation chamber at 20° C. and 100% relative humidity for 48 hours and are then sprayed with the active substance composition in the application rate given. The plants are placed in a greenhouse at a temperature of approximately 20° C. and a relative humidity of approximately 80%.\nas §3"}, "log P (pH 2.3)": {"test": "log P (pH 2.3)", "format": "physicochemical"}}, "data": [{"smiles": "CCN(C)C=Nc1cc(C)c(Oc2nc(C3(Cl)CC3)ns2)cc1Cl", "note": "[Compound 3, N′-(2-chloro-4-{[3-(1-chlorocyclopropyl)-1,2,4-thiadiazol-5-yl]oxy}-5-methylphenyl)-N-ethyl-N-methylimidoformamide]", "values": [{"measurement": "pest or weed control at 500 ppm", "setting": "Sphaerotheca fuliginea", "result": "≥ 70", "unit": "%"}, {"measurement": "pest or weed control at 500 ppm", "setting": "Puccinia triticina [1]", "result": "≥ 70", "unit": "%"}, {"measurement": "pest or weed control at 500 ppm", "setting": "Puccinia triticina [2]", "result": "≥ 70", "unit": "%"}, {"measurement": "logP", "setting": "log P (pH 2.3)", "result": 1.62}]}]}
